In the NIST ThermoML archive (doi:10.1016/j.fluid.2014.10.004):
± gives the expanded uncertainty stated by the source.

Columns and labels:
[1] = xn = mol fraction of the nth substance listed; settings: 101.3 kPa, Liquid, Sing-around technique in a fixed-path interferometer
[2] = refractive index (Na D-line) (dimensionless); xn = mol fraction of the nth substance listed; settings: 101.3 kPa, Liquid, Standard Abbe refractometry

ClC(Cl)C(Cl)Cl [1,1,2,2-tetrachloroethane] + C[N+](=O)[O-]
Settings | refractive index, 298.15 K | refractive index, 308.15 K | refractive index, 318.15 K | speed of sound, 298.15 K [m/s] | speed of sound, 308.15 K [m/s] | speed of sound, 318.15 K [m/s]
[1], x1 = 0.0711 | – | – | – | 1293.1 ± 1.8 | 1254.8 ± 1.8 | 1216.6 ± 1.8
[1], x1 = 0.1888 | – | – | – | 1257.7 ± 1.9 | 1220.8 ± 1.8 | 1184.5 ± 1.8
[1], x1 = 0.2563 | – | – | – | 1241.8 ± 1.9 | 1205.8 ± 1.9 | 1170 ± 1.9
[1], x1 = 0.3464 | – | – | – | 1224.1 ± 1.9 | 1189.1 ± 1.9 | 1154.2 ± 1.9
[1], x1 = 0.4341 | – | – | – | 1209.8 ± 2 | 1175.4 ± 2 | 1141.1 ± 2
[1], x1 = 0.5431 | – | – | – | 1194.8 ± 2 | 1161.1 ± 2 | 1127.6 ± 2
[1], x1 = 0.6654 | – | – | – | 1180.7 ± 2.1 | 1147.6 ± 2.1 | 1114.7 ± 2.1
[1], x1 = 0.8211 | – | – | – | 1165.3 ± 2.2 | 1133 ± 2.2 | 1100.8 ± 2.2
[1], x1 = 0.9285 | – | – | – | 1156.2 ± 2.3 | 1124.2 ± 2.3 | 1092.3 ± 2.3
[1], x1 = 1 | – | – | – | 1150.6 ± 2.3 | 1118.7 ± 2.3 | 1087 ± 2.3
[2], x1 = 0.0711 | 1.39391 ± 0.00042 | 1.3893 ± 0.0004 | 1.38479 ± 0.00042 | – | – | –
[2], x1 = 0.1888 | 1.41442 ± 0.00043 | 1.4099 ± 0.0004 | 1.40582 ± 0.00043 | – | – | –
[2], x1 = 0.2563 | 1.42485 ± 0.00043 | 1.42025 ± 0.00043 | 1.4162 ± 0.0004 | – | – | –
[2], x1 = 0.3464 | 1.43683 ± 0.00044 | 1.43222 ± 0.00044 | 1.42805 ± 0.00044 | – | – | –
[2], x1 = 0.4341 | 1.44721 ± 0.00045 | 1.4425 ± 0.0005 | 1.43807 ± 0.00045 | – | – | –
[2], x1 = 0.5431 | 1.45848 ± 0.00046 | 1.45366 ± 0.00046 | 1.44909 ± 0.00046 | – | – | –
[2], x1 = 0.6654 | 1.46937 ± 0.00047 | 1.46448 ± 0.00047 | 1.4596 ± 0.0005 | – | – | –
[2], x1 = 0.8211 | 1.48094 ± 0.00049 | 1.47589 ± 0.00049 | 1.47087 ± 0.00049 | – | – | –
[2], x1 = 0.9285 | 1.48772 ± 0.0005 | 1.48262 ± 0.0005 | 1.47752 ± 0.0005 | – | – | –
[2], x1 = 1 | 1.49174 ± 0.00051 | 1.48654 ± 0.00051 | 1.48137 ± 0.00051 | – | – | –

C[N+](=O)[O-] [nitromethane] + ClCCCCl
x2 = 0
Settings | refractive index, 298.15 K | refractive index, 308.15 K | refractive index, 318.15 K | speed of sound, 298.15 K [m/s] | speed of sound, 308.15 K [m/s] | speed of sound, 318.15 K [m/s]
[1] | – | – | – | 1321.2 ± 1.8 | 1281.8 ± 1.8 | 1242.5 ± 1.7
[2] | 1.37948 ± 0.0004 | 1.3748 ± 0.0004 | 1.37007 ± 0.0004 | – | – | –
